Patent US9387135B2, “Absorbent article” (UNICHARM CORPORATION, priority 2012, dated 2016)

Assays:
[1] = Excerpt: The term “solubility” used herein in regard to water solubility includes cases where the sample completely dissolves in deionized water to form a homogeneous mixture, and cases where the sample is completely emulsified. Here, “completely” means that no mass of the sample remains in the deionized water.
[2] = Surface tension of blood containing blood modifying agent, pendant drop method; conditions: 0.10 mass % in sheep defibrinated blood, 35 ° C.
Procedure: The surface tension of blood containing a blood modifying agent was measured by the pendant drop method, using a Drop Master500 contact angle meter by Kyowa Interface Science Co., Ltd. The surface tension was measured after adding a prescribed amount of blood modifying agent to sheep defibrinated blood, and thoroughly shaking. The measurement was accomplished automatically with a device, and the surface tension γ was determined by the following formula (see FIG. 13). γ=g×ρ×(de)^2×1/H The density ρ was measured at the temperatures listed in Table 5, according to JIS K 2249-1995, “Density test methods and density/mass/volume conversion tables”, “5. Vibrating density test method”. The measurement was accomplished using a DA-505 by Kyoto Electronics Co., Ltd.

Row | Structure (SMILES) | Water solubility [1] [g] | Surface tension [2] [mN/m]
1 | CCCCCCCC(=O)OCC(COC(=O)CCCCCCC)OC(=O)CCCCCCC [PANACET 800] | <0.05 | –
2 | CCCCCCCCCCCCOC(=O)CCCCCCCCCCC [ELECTOL WE20, Ester of dodecanoic acid (C12) and dodecyl alcohol (C12)] | – | 58.8
